Data reported in article PMC9738632 (Molecules, 2022).
Where two headings read alike, the source gives them in different places.

How the values were obtained:
[1] = Cytotoxic assay (MTT) against BHK-21 cells; assay type: cell-based; conditions: hamster, read-out: CC50 (50% cytotoxic concentration)
Procedure: The cytotoxic evaluation of the extracts was carried out against the BHK-21 cells. Under cultural conditions of EMEM with FBS (10%), the assaying cells were grown in 96-well bottom-transparent plates at a density of 6 × 10^4 cells/mL per well. The compounds that had been dissolved in dimethyl sulfoxide (DMSO) with six different concentrations (500, 250, 125, 62.5, 31.25, 15.625 μg/mL) were added into each well; each concentration was used in triplicate. After incubation at 37 °C under 5% CO2 atmosphere for 48 h, MTT (0.5 mg/mL) was added into each well; afterwards, 4 h incubation was carried out. The liquid in the wells was removed, and DMSO ([…]) was added to each well. The optical absorbance was recorded on a microplate reader at λ = 570 nm (Genious Tecan, Grödig, […]). The optical density in the wells was plotted against the logarithm of compound concentration, and 50% cytotoxic concentration (CC50), the compound concentration decreasing the optical density twice comparing to control wells, was calculated using the appropriate software (Table Curve 2Dv4.USA).

[2] = test system: DENV-1:VN/2017/D7709; experiment: Plaque reduction neutralization test (PRNT), DENV-1; assay type: cell-based, Dengue virus; conditions: DENV-1, BHK-21 cells; for IC50: Dengue virus, DENV1, read-out: PRNT50 DENV-1 (concentration that reduces plaque number by 50%)
Description: (§1) The dengue viruses used in this study were DENV-1:VN/2017/D7709, DENV-2: 00St22A, DENV-3: SMLC50, DENV-4: SLMC318. The virus strains were supplied by the Vietnam National Institute of Hygiene and Epidemiology. The four above serotypes of the Dengue virus were propagated in BHK-21 cell lines (provided by Nagasaki University, Japan) in Eagle’s Minimum Essential Medium (EMEM; Gibco Thermo Fischer Scientific, Waltham, MA, USA) with 2% Fetal Bovine Serum (FBS; Sigma Aldrich, St. Louis, MO, USA) at 37 °C under 5% CO2 atmosphere for 5–7 days. The BHK-21 cells were cultured using 10% FBS EMEM medium.
(§2) EMEM (1 mL) containing FBS (2%) was added into each of 24-well plates (with a concentration of […] –1.0 × 10^4 cells/well). The well plates were shaken to induce the formation of identical cell layers. Afterwards, the wells were incubated at 37 °C under 5% CO2 atmosphere overnight until the cell concentration reached at 70–90%. In case this concentration was not yet reached, the incubation was allowed to continue for a further 1 to 2 days.
(§3) The compounds 4–8 and 23 were totally dissolved in EMEM with a concentration of 500 μg/mL, which was serially diluted with step 2 with EMEM containing 2% FBS; the solutions of compounds were kept at 2–8 °C. The viruses were used at the dose of 2.5 × 10^3 PFU/mL in EMEM containing 2% FBS. The virus (100 μL) was added to all the diluted samples. The virus-compounds mixtures were incubated at 37 °C under 5% CO2 atmosphere for 60 min; afterwards, the medium in all wells of the plates was removed. The virus-compounds mixture (50 μL) was added into the wells, according to the designed experimental test concentration/dilution.
(§4) The viral medium was used as the negative control. EMEM (2 mL) containing methyl cellulose (1%) was added and re-incubated at 37 °C under 5% CO2 atmosphere for 4–6 days. The typical DENV-1 and DENV-4-induced CPE appeared after 4 days of incubation, while the durations for DENV-2 and DENV-3 were 5 and 6 days, respectively. These times of incubation allowed the formation of the plaques to be visually observable and countable. The plaques can be observed under a microscope or by eyes. The cells were fixed with formalin (3.7%) for 1 h at room temperature, washed with water, and stained with crystal violet (0.25%) for 1 h at room temperature. Finally, the plaques were counted.

[3] = test system: DENV-4: SLMC318; experiment: Plaque reduction neutralization test (PRNT), DENV-4; assay type: cell-based, Dengue virus; conditions: DENV-4, BHK-21 cells; for IC50: Dengue virus, DENV4, read-out: PRNT50 DENV-4 (concentration that reduces plaque number by 50%)
Description: as §1, §2, §3, §4

[4] = test system: DENV-3: SMLC50; experiment: Plaque reduction neutralization test (PRNT), DENV-3; assay type: cell-based, Dengue virus; conditions: DENV-3, BHK-21 cells; for IC50: Dengue virus, DENV3, read-out: PRNT50 DENV-3 (concentration that reduces plaque number by 50%)
Description: as §1, §2, §3, §4

[5] = test system: DENV-2: 00St22A; experiment: Plaque reduction neutralization test (PRNT), DENV-2; assay type: cell-based, Dengue virus; conditions: DENV-2, BHK-21 cells; for IC50: Dengue virus, DENV2, read-out: PRNT50 DENV-2 (concentration that reduces plaque number by 50%)
Description: as §1, §2, §3, §4

[6] = test system: influenza virus A/Puerto Rico/8/34 (H1N1); experiment: organism not typed; assay type: cell-based; conditions: for IC50: read-out: IC50 (50% inhibitory concentration)
[7] = Cytotoxicity assay (MTT) in MDCK cells; assay type: cell-based, Canine; conditions: dog, read-out: CC50 (50% cytotoxic concentration)
Procedure: Initially, maximum non-toxic concentrations were determined for compounds 1–22 to exclude their non-specific antiviral activity. The in vitro cytotoxicity of the tested compounds (CC50) was studied in the normal Madin-Darby Canine Kidney cell line (MDCK) by the MTT ((3-(4,5-dimethylthiazol-2-yl)-2,5-diphenyltetrazolium bromide) test. The highest concentration tested was […]. The cytotoxicity of oseltamivir carboxylate and rimantadine was also evaluated as these have been used as reference drugs in antiviral tests. Compounds at concentration that kills no more than 50% of cells (CC50) were used for further investigation of antiviral activity.
The MDCK cells were seeded onto 96-well culture plates (10^4 cells per well) and incubated at 36 °C in 5% CO2 until continuous monolayer formation. To assess the toxicity of the compounds, a series of their 3-fold dilutions, at concentrations of 300 to 3.7 μg/mL in Eagle’s Minimal Essential Medium (MEM), were prepared. The dilutions were added to the wells of the plates. The cells were incubated for 72 h at 36 °C in a CO2 incubator under 5% CO2. Further, a microtetrazolium (MTT) assay was performed on the 96-well plates. The cells were washed 2 times with saline (0.9% NaCl), and 100 μL/well of MTT solution [3-(4,5-dimethylthiazol-2-yl)-2,5-diphenyltetrazolium bromide] at a concentration of […] in MEM was added. The plates were incubated for 1 h at 36 °C, the liquid was removed, and dimethylsulfoxide (DMSO) (0.1 mL per well) was added. The optical density (OD) of the cells was measured on a Thermo Multiskan FC spectrophotometer (Thermo Fisher Scientific, Waltham, MA, USA) at a wavelength of 540 nm. Based on the obtained data, the CC50, the concentration of the compound that destroys 50% of the cells in the culture, was calculated for each specimen.

[8] = test system: influenza virus A H7N1; conditions: cited from earlier work
[9] = test system: influenza virus A/Puerto Rico/8/34 (H1N1); parameters: method as in earlier work; conditions: ref 40 (table), read-out: IC50 (50% inhibitory concentration); cited from earlier work
[10] = test system: MDCK cells; parameters: method as in earlier work; conditions: ref 40 (table), read-out: CC50 (50% cytotoxic concentration); cited from earlier work
[11] = test system: Flu A H1N1 strain; parameters: method as in doi:10.1177/1934578X1801301008; conditions: read-out: IC50 against Flu A H1N1 strain; cited from earlier work

Compound	SI (selectivity index, CC50/IC50) [6]	IC50 ([6]; MDCK, 72 h) [µM]	CC50 at 72 h [7] [µM]	melting point [°C]	also measured
CC1(C)CC[C@]2(CO)CC[C@]3(C)C(NCCC4[C@@]5(C)CC[C@H](O)C(C)(C)C5CC[C@]43C)C2C1 (stereo partly shown) [Compound 23, C-azepano-erythrodiol]	–	–	–	–	CC50 at 48 h [1]: > 544 µM; IC50 [2]: 107 ± 7 µM; IC50 [3]: 108 ± 5 µM; IC50 [4]: 228 ± 16 µM; IC50 [5]: 68 ± 3 µM
CCOC(=O)CNC(=O)CN(Cc1ccccc1)C(=O)[C@]12CCC(C)(C)CC1C1=CCC3[C@@]4(C)CCC(=O)C(C)(C)C4CC[C@@]3(C)[C@]1(C)CC2 (stereo partly shown) [Compound 9, Ethyl N-Benzyl-N-3-oxo-olean-12-en-28-glycylglycinate]	>11	41 ± 5	> 437	245 to 247	–
CC1(C)CC[C@]2(C(=O)NCCCNCCCCNCCCN)CC[C@]3(C)C(=CCC4[C@@]5(C)Cc6c([nH]c7ccccc67)C(C)(C)C5CC[C@]43C)C2C1 (stereo partly shown) [Compound 8, N-([3,2b]-Indolo-olean-12(13)-en-28-oyl)-spermine Amide]	>5	27 ± 4	> 140	138	CC50 at 48 h [1]: > 351 µM; PRNT50 DENV-1 (concentration that reduces plaque number by 50%) [2]: inactive; IC50 [2]: 336 ± 22 µM; PRNT50 DENV-4 (concentration that reduces plaque number by 50%) [3]: inactive; IC50 [3]: 336 ± 28 µM; PRNT50 DENV-3 (concentration that reduces plaque number by 50%) [4]: inactive; IC50 [4]: > 351 µM; PRNT50 DENV-2 (concentration that reduces plaque number by 50%) [5]: inactive; IC50 [5]: 347 ± 21 µM
betulonic acid L-leucine-amide	–	–	–	–	suppression of the influenza virus A H7N1 [8]: 90%; EC50 ([8]; influenza virus A H7N1): 2.17 µM
CCOC(=O)CNC(=O)CN(Cc1ccccc1)C(=O)[C@]12CCC(C)(C)CC1C1=CCC3[C@@]4(C)Cc5c([nH]c6ccccc56)C(C)(C)C4CC[C@@]3(C)[C@]1(C)CC2 (stereo partly shown) [Compound 10, Ethyl N-Benzyl-N-2,3-indolo-olean-12-en-28-glycylglycinate]	3	39 ± 4	121 ± 9	197 to 199	–
CC1(C)CC[C@]2(C(=O)NCCN3CCNCC3)CC[C@]3(C)C(=CCC4[C@@]5(C)CCC(=O)C(C)(C)C5CC[C@]43C)C2C1 (stereo partly shown) [Compound 6, N-(3-Oxo-olean-12(13)-en-28-oyl)-aminoethylpiperazine Amide]	5	82 ± 10	442 ± 31	175	CC50 at 48 h [1]: 111 ± 8 µM; IC50 [2]: 67 ± 4 µM; IC50 [3]: 110 ± 8 µM; IC50 [4]: > 111 µM; IC50 [5]: 86 ± 5 µM
CC1(C)CC[C@]2(C(=O)N3CCCNCC3)CC[C@]3(C)C(=CCC4[C@@]5(C)CCC(=O)C(C)(C)C5CC[C@]43C)C2C1 (stereo partly shown) [Compound 2, N-(3-Oxo-olean-12(13)-en-28-oyl)-homopiperazine Amide]	>27	20 to 21	> 560	174	IC50 [6]: 21 ± 3 µM
COC(=O)[C@]12CCC(C)(C)CC1C1=CCC3[C@@]4(C)CC[C@H](NC(=O)c5ccccc5C(=O)O)C(C)(C)C4CC[C@@]3(C)[C@]1(C)CC2 (stereo partly drawn) [Compound 22, Methyl 3β-N-phthalyl-olean-12(13)-en-28-oate]	>42	12 ± 2	> 486	240	–
CCC(CC)O[C@@H]1C=C(C(=O)O)C[C@H](N)[C@H]1NC(C)=O [Oseltamivir carboxylate, reference compound]	>667	0.3 ± 0.01	> 200	–	–
CC1(C)CC[C@]2(C(=O)N3CCCNCC3)CC[C@]3(C)C(=CCC4[C@@]5(C)Cc6c([nH]c7ccccc67)C(C)(C)C5CC[C@]43C)C2C1 (stereo partly shown) [Compound 7, N-([3,2b]-Indolo-olean-12(13)-en-28-oyl)-homopiperazine Amide]	–	–	–	> 200	CC50 at 48 h [1]: > 410 µM; IC50 [2]: 164 ± 11 µM; IC50 [3]: 371 ± 16 µM; IC50 [4]: > 410 µM; IC50 [5]: 105 ± 7 µM
CC(N)C12CC3CC(CC(C3)C1)C2 (stereo not shown) [Rimantadine, reference compound]	6	–	344 ± 19	–	–
CC1(C)CC[C@]2(C(=O)N3CCCN(CC#N)CC3)CC[C@]3(C)C(=CCC4[C@@]5(C)CCC(=O)C(C)(C)C5CC[C@]43C)C2C1 (stereo partly shown) [Compound 11, N-(3-Oxo-olean-12(13)-en-28-oyl)-4′-cyanomethyl-homopiperazine Amide]	>12	45 ± 6	> 522	191	–
COC(=O)[C@]12CCC(C)(C)CC1C1=CCC3[C@@]4(C)CC[C@H](N)C(C)(C)C4CC[C@@]3(C)[C@]1(C)CC2 (stereo partly drawn) [Compound 21, Methyl 3β-amino-oleanoate]	–	–	–	–	IC50 [9]: 7.9 µM; CC50 [10]: 18 µM
Lupane 3,4-seco-3,28-bis-methylpiperazine-amide	–	–	–	–	IC50 [11]: 27 µM
